Results reported in the supplement of paper PMC11061612.

Legend:
Assay in all cases: Bliss excess, mean over the matrix (fraction); higher = more synergy
[1] = system: KU812 (Chronic Myelogenous Leukemia)
Method in brief: (§1)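 Cell lines in DMEM/F12 or RPMI with 10% FBS were plated in 1536-well plates, held 24 hours at 37°C, 5% CO2, then given two-drug dose matrices for 72 hours (DMSO typically 0.2%). Viability was read by CellTiter-Glo 2.0 luminescence and scaled as inhibition from 0 (vehicle wells) to 1 (blank wells). Combination Emax is the second-highest inhibition in the matrix; Bliss excess is observed combination effect minus expected EA + EB − EA·EB, EA and EB being single-agent effects.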

[2] = system: ST486 (Burkitt's Lymphoma)
Method in brief: as §1

[3] = system: NCI-H3122 (Lung Adenocarcinoma)
Method in brief: as §1

[4] = system: COR-L279 (Small Cell Lung Carcinoma)
Method in brief: as §1

[5] = system: OCI-AML3 (Acute Myeloid Leukemia)
Method in brief: as §1

SJSA-1 (Osteosarcoma) = system: SJSA-1 (Osteosarcoma)
Method in brief: as §1

[6] = system: T-T (Esophageal Squamous Cell Carcinoma)
Method in brief: as §1

[7] = system: MN-60 (B-Lymphoblastic Leukemia)
Method in brief: as §1

[8] = system: NCI-H526 (Small Cell Lung Carcinoma)
Method in brief: as §1

[9] = system: VMRC-RCZ (Kidney Carcinoma)
Method in brief: as §1

[10] = system: MOG-G-CCM (Low Grade Glioma)
Method in brief: as §1

[11] = system: NCI-H520 (Squamous Cell Lung Carcinoma)
Method in brief: as §1

[12] = system: NCI-H929 (Plasma Cell Myeloma)
Method in brief: as §1

[13] = system: CW-2 (Colorectal Carcinoma)
Method in brief: as §1

[14] = system: KYSE-270 (Esophageal Squamous Cell Carcinoma)
Method in brief: as §1

NCI-H2731 (Mesothelioma) = system: NCI-H2731 (Mesothelioma)
Method in brief: as §1

[15] = system: KP-3 (Pancreatic Carcinoma)
Method in brief: as §1

M059J (Glioblastoma) = system: M059J (Glioblastoma)
Method in brief: as §1

[16] = system: NCCIT (Other Solid Carcinomas)
Method in brief: as §1

[17] = system: SK-GT-4 (Esophageal Adenocarcinoma)
Method in brief: as §1

| SMILES | Bliss excess [1] | Bliss excess [2] | Bliss excess [3] | Bliss excess [4] | Bliss excess [5] | Bliss excess (SJSA-1 (Osteosarcoma)) | Bliss excess [6] | Bliss excess [7] | Bliss excess [8] | Bliss excess [9] | Bliss excess [10] | Bliss excess [11] | Bliss excess [12] | Bliss excess [13] | Bliss excess [14] | Bliss excess (NCI-H2731 (Mesothelioma)) | Bliss excess [15] | Bliss excess (M059J (Glioblastoma)) | Bliss excess [16] | Bliss excess [17] |
| --- | --- | --- | --- | --- | --- | --- | --- | --- | --- | --- | --- | --- | --- | --- | --- | --- | --- | --- | --- | --- |
| C[C@@H](Nc1cc(F)cc(F)c1)c1cc(C(=O)N(C)C)cc2c(=O)cc(N3CCOCC3)oc12 [AZD8186] + C1CN(CCC1(C(=O)N[C@@H](CCO)C2=CC=C(C=C2)Cl)N)C3=NC=NC4=C3C=CN4 [AZD5363] (first compound max 10 µM, 7x7, partner max 10 µM) | -0.053 | -0.0265 | 0.0211 | 0.0622 | 0.031 | -0.0208 | 0.0073 | -0.0655 | -0.0238 | -0.0134 | -0.058 | -0.034 | -0.0035 | -0.0086 | 0.0302 | -0.0476 | -0.0207 | -0.0145 | 0.0368 | -0.0478 |
| Cc1c2c(nn1C)CSCc1cc(n(C)n1)CSc1cc(c3ccccc3c1)OCCCc1c(C(=O)O)n(C)c3c-2c(Cl)ccc13 [AZD5991] + CS(=O)(=O)CCNCc1ccc(-c2ccc3ncnc(Nc4ccc(OCc5cccc(F)c5)c(Cl)c4)c3c2)o1 [Lapatinib] (first compound max 1 µM, 7x7, partner max 10 µM) | -0.0005 | -0.0655 | -0.0164 | -0.0053 | -0.0516 | -0.0115 | 0.0522 | -0.0584 | 0.0226 | -0.0195 | -0.0322 | 0.0111 | -0.0113 | 0.0142 | 0.016 | 0.0234 | -0.003 | -0.0103 | -0.0119 | 0.0391 |
